These results are taken from ChEMBL document CHEMBL1143113, “Design and synthesis of 4-[(s-triazin-2-ylamino)methyl]-N-(2-aminophenyl)-benzamides and their analogues as a novel class of histone deacetylase inhibitors” (Bioorg Med Chem Lett, 2008).

Assay [1] can be described thus: Induction of histone H4 acetylation in human […]. It is filed as functional, cell-based.
Assay [2] has as its system HCT-116. In words: Cytotoxicity against human HCT116 cells by MTT assay. It is filed as functional, cell-based.
The target in assay [3] is T1, Histone deacetylase 1 (Homo sapiens, UniProt Q13547). Briefly: Inhibition of human recombinant HDAC1.
T1 sequence (Q13547 whole entry): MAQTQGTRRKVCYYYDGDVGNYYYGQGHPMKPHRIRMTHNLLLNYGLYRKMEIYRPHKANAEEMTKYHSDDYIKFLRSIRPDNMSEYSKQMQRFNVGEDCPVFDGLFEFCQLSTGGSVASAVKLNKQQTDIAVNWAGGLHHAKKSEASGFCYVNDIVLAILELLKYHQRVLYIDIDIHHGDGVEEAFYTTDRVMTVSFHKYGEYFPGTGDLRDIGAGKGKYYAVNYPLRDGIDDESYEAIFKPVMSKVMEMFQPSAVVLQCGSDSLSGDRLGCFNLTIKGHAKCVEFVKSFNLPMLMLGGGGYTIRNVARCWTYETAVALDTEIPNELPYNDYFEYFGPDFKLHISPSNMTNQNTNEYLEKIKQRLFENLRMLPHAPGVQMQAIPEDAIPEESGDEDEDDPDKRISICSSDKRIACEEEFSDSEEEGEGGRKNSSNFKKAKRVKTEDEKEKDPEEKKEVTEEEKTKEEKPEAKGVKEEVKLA
The next assay relates to HMEC. In words: Cytotoxicity against human HMEC cells by MTT assay. Type of assay: cell-based.
Assay [4] deals with T2, Protein deacetylase HDAC6 (Homo sapiens) (UniProt Q9UBN7).
T2 sequence (whole entry): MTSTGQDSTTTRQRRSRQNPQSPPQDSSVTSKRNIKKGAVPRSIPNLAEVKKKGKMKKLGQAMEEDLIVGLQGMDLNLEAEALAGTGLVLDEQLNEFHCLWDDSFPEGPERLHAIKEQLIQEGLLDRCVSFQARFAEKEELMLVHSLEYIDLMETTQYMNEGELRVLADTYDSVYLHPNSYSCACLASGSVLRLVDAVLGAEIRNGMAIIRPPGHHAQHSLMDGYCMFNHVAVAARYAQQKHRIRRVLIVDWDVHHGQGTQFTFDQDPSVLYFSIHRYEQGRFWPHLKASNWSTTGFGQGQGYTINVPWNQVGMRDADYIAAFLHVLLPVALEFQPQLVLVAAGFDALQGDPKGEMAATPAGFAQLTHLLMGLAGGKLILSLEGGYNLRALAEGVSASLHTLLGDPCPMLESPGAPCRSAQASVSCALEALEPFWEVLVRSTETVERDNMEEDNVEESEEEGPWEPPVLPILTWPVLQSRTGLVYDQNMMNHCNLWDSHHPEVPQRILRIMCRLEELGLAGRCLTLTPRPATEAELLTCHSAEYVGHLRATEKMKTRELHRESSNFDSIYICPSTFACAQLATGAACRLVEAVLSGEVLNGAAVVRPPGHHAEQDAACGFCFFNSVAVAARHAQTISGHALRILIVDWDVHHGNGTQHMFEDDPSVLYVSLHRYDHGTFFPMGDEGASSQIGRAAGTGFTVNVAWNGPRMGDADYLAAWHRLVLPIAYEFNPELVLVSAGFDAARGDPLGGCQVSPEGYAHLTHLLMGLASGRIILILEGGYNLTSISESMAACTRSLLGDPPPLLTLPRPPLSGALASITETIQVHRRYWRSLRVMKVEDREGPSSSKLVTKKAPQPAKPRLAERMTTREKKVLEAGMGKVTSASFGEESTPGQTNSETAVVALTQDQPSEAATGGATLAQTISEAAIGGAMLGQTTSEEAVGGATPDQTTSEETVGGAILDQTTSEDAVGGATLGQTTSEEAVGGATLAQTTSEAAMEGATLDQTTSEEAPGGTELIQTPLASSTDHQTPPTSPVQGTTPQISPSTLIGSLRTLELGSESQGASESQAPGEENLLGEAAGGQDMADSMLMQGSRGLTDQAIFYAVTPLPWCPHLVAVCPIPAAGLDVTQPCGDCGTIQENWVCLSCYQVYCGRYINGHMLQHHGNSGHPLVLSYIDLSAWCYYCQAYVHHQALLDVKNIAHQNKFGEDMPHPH
In words: Activity against HDAC6.

Assay [5] concerns the target Histone deacetylase 5 (Homo sapiens) (UniProt Q9UQL6). Briefly: Activity against HDAC5.
The target in assay [6] is Histone deacetylase 2 (Homo sapiens) (UniProt Q92769). Briefly: Activity against HDAC2.
Histone deacetylase 2 (Homo sapiens), sequence (Q92769 whole entry): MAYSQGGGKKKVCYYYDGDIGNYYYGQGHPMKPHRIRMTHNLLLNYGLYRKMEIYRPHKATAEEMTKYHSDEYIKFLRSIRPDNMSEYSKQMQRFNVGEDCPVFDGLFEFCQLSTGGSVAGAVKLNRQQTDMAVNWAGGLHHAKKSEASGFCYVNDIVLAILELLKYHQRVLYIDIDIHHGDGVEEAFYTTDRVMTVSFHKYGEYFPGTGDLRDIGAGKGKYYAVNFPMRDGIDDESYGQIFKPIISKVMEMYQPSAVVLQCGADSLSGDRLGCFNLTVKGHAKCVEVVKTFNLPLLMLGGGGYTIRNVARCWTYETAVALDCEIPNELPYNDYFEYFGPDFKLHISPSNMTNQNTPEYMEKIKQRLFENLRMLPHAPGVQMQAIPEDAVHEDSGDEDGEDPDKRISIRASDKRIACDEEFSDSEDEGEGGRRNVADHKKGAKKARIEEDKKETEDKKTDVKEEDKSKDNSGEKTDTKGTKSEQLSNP
Assay [7] concerns the target T3, Histone deacetylase 7 (Homo sapiens) (UniProt Q8WUI4).
T3 sequence (whole entry): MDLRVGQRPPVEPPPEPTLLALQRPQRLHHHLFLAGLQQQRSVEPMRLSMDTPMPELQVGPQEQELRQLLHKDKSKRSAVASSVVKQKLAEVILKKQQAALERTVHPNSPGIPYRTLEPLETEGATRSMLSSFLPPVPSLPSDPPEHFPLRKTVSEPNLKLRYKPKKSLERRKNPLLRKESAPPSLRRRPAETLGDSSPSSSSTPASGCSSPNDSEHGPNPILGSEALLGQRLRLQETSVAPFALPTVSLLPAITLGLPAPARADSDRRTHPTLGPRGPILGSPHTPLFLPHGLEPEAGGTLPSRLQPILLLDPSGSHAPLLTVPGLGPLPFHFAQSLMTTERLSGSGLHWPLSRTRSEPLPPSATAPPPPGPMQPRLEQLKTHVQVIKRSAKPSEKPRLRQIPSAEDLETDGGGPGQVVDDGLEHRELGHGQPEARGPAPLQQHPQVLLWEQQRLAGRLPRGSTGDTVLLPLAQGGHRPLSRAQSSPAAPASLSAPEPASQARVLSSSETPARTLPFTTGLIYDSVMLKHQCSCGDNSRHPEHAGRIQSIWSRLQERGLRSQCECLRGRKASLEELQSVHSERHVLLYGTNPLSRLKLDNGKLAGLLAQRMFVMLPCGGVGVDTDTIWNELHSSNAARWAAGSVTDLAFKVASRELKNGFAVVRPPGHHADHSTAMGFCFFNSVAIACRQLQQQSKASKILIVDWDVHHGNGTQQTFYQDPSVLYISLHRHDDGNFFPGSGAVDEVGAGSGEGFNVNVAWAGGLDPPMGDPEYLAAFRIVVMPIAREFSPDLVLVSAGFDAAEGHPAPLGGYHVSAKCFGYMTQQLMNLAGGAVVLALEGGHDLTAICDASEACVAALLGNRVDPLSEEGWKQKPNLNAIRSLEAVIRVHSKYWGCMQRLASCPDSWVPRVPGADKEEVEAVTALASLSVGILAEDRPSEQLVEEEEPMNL
Briefly: Activity against HDAC7.

Assay [8] deals with T1, Histone deacetylase 1. In words: Activity against HDAC1.
The subject of assay [9] is HCT-116. In words: Antitumor activity in human HCT116 tumor bearing mouse at 20 mg/kg/day, ip after 2 weeks. Type of assay: functional. As to conditions: HCT-116, ip, 336 h, route intraperitoneal.
The target in assay [10] is Histone deacetylase 4 (Homo sapiens) (UniProt P56524). In words: Activity against HDAC4.
Histone deacetylase 4 (Homo sapiens), sequence (P56524 whole entry): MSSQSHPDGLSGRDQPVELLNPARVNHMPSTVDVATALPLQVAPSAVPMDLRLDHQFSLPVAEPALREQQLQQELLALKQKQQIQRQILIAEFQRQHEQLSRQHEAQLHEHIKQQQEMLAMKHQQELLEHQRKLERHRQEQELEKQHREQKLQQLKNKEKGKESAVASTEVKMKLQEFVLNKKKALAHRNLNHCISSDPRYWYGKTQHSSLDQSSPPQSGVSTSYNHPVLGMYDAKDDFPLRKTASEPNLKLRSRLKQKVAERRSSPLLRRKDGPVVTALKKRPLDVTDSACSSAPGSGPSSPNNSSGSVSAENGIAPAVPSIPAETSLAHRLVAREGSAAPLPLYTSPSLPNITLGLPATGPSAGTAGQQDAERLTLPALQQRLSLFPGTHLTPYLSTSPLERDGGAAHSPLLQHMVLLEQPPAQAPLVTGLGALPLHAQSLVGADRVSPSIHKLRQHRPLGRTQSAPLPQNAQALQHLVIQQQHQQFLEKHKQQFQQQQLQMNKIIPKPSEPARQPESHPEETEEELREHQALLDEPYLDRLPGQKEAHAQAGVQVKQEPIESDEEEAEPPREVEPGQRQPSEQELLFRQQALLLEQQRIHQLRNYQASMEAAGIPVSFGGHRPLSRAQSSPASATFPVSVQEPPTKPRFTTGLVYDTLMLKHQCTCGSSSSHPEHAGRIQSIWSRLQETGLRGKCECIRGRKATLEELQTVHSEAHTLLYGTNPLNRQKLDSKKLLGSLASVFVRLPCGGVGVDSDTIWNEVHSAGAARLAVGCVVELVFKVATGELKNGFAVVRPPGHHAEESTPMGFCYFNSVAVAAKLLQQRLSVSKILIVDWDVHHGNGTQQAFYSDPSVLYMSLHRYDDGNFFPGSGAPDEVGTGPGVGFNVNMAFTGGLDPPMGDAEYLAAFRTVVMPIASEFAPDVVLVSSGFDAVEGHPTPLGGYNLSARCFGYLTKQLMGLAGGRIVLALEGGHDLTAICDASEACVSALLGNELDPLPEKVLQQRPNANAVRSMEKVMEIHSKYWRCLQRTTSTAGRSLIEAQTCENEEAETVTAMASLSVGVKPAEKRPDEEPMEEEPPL
The target in assay [11] is Histone deacetylase 3 (Homo sapiens) (UniProt O15379). Briefly: Activity against HDAC3.
Histone deacetylase 3 (Homo sapiens), sequence (O15379 whole entry): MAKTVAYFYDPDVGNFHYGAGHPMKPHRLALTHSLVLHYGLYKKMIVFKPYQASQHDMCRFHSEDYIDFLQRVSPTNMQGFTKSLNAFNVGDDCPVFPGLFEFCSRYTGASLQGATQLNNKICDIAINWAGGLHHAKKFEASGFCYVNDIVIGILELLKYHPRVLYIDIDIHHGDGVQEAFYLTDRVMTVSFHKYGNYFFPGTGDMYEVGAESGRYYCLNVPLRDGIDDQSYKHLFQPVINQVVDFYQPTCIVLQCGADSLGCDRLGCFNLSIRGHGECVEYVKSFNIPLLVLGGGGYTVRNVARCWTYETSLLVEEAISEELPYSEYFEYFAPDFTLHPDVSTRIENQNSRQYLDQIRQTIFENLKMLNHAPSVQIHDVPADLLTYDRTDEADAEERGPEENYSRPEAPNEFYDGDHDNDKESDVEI
Assay [12] has as its system HCT-116. Briefly: Antitumor activity in human HCT116 tumor bearing mouse at 40 mg/kg/day, ip after 2 weeks. It is filed as functional. As to conditions: HCT-116, ip, 336 h, route intraperitoneal.

Calls of active or inactive are those of the source. The calls are words filed in the database; no cut-off is given here.

Histone deacetylase 5 (Homo sapiens), sequence (Q9UQL6 whole entry): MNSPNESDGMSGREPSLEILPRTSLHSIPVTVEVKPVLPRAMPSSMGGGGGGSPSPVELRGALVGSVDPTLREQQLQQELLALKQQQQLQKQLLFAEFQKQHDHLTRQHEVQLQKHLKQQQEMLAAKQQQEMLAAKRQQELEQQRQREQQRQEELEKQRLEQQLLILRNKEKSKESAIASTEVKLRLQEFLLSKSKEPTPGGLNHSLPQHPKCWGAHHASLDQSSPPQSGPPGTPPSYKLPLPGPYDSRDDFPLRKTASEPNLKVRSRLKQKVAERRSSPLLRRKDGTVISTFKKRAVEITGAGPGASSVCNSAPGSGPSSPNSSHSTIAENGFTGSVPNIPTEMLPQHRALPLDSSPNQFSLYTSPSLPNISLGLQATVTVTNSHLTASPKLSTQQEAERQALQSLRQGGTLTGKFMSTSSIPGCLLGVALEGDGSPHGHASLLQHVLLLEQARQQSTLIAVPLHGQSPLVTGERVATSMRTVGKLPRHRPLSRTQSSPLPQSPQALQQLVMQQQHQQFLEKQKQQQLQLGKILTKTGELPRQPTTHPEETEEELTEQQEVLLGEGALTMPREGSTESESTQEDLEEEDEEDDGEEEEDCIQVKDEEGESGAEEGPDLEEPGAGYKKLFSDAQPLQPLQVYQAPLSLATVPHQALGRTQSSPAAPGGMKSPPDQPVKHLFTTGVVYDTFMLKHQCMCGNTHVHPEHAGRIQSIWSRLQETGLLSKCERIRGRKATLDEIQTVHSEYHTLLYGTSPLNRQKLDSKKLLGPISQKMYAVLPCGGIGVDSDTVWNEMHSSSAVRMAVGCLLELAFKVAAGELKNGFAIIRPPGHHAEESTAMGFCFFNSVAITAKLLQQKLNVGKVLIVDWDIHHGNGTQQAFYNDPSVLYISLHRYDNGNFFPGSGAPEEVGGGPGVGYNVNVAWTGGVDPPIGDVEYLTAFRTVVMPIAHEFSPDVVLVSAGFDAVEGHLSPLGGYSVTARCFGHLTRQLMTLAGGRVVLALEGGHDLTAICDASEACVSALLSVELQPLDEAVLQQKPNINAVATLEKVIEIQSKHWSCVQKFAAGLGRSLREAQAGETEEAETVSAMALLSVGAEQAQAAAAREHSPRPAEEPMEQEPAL

What is called EC50 is the concentration giving half of the maximal effect. The low end stands for an effect from little substance, the high end for a need for much substance. What is called IC50 is the point on the concentration scale where inhibition reaches its midpoint. In [1], `Nc1ccccc1NC(=O)c1ccc(CNc2nc(NC3Cc4ccccc4C3)nc(N3CCOCC3)n2)cc1` displayed an EC50 of 1000 nM. The figures for the IC50 with HCT-116 [2], at Histone deacetylase 1 [3] and with HMEC were 2000 nM, 80 nM and above 50000 nM, respectively.
With `Nc1ccccc1NC(=O)c1ccc(CNc2nc(NC3CC3)nc(NC3Cc4ccccc4C3)n2)cc1`, the midpoint of the response in [1], the EC50, lay at 1000 nM. Moreover, the IC50 in the assay on HCT-116 [2] came out at 1000 nM; on Histone deacetylase 1 [3], 30 nM; in the assay on HMEC, 18000 nM.
For `COc1cc(NCc2ccc(C(=O)Nc3ccccc3N)cc2)ncn1`, the results for the half-maximal inhibitory concentration (IC50) with HCT-116 [2] and on Histone deacetylase 1 [3] were 1000 nM and 200 nM, respectively.
With `COc1cccc(NCc2ccc(C(=O)Nc3ccccc3N)cc2)n1`, the results for the IC50 in the assay on HCT-116 [2] and at Histone deacetylase 1 [3] were 800 nM and 100 nM, respectively.
On to `Nc1nc(NCc2ccc(C(=O)Nc3ccccc3N)cc2)c2nc[nH]c2n1`, for which the IC50 in the assay with HCT-116 [2] stood at 10000 nM; at Histone deacetylase 1 [3] it was 200 nM.
Compound `Nc1nc(NCc2ccc(C(=O)Nc3ccccc3N)cc2)nc(N2Cc3ccccc3C2)n1` returned a concentration giving a half-maximal response (EC50) in [1] of 1000 nM. For the same compound, the concentration for half-maximal inhibition (IC50) in the assay on HCT-116 [2] was 500 nM; at Histone deacetylase 1 [3], 40 nM; in the assay with HMEC, above 50000 nM.
Regarding `Cc1ccc(C#N)c(OCc2ccc(C(=O)Nc3ccccc3N)cc2)n1`, the IC50 in the assay with HCT-116 [2] was determined as 500 nM; at Histone deacetylase 1 [3], 300 nM.
On to `COc1ccc(-c2ccnc(NCc3ccc(C(=O)Nc4ccccc4N)cc3)n2)cc1OC`, for which the half-inhibitory concentration (IC50) in the assay with HCT-116 [2] is 100 nM; at Histone deacetylase 1 [3] it was 50 nM.
Regarding `Nc1ccccc1NC(=O)c1ccc(CNc2ncccn2)cc1`, the figures for the IC50 in the assay with HCT-116 [2] and on Histone deacetylase 1 [3] were 2000 nM and 700 nM, respectively.
As a reminder, the inhibition in vivo is the percentage by which the read-out fell short of the control. `Nc1ccccc1NC(=O)c1ccc(CNc2nc(NCCN3CCOCC3)nc(NC3Cc4ccccc4C3)n2)cc1`: in assay [1], the 50% effective concentration (EC50) is 1000 nM. For the same compound, the outcome in assay [4], in assay [5], in assay [7] and in assay [10] was inactive. The outcome (in assay [6]; at Histone deacetylase 1 [8]; in [11]) was Active. For the same compound, the inhibition in vivo at 20 mg/kg/day in the assay on HCT-116 [9] was determined as 49%. The IC50 in the assay on HCT-116 [2] is 600 nM; on Histone deacetylase 1 [3] it was 70 nM; in the assay on HMEC, 16000 nM.
In assay [1], `Nc1nc(NCc2ccc(C(=O)Nc3ccccc3N)cc2)nc(N2CCOCC2)n1` showed an EC50 of 5000 nM. Moreover, the outcome in [4], in assay [5], in assay [7] and in assay [10] was inactive. Also, the result (in assay [6]; on Histone deacetylase 1 [8]; in [11]) was Active. The compound further gave an inhibition in vivo at 40 mg/kg/day in the assay on HCT-116 [12] of 50%. The IC50 in the assay with HCT-116 [2] is 800 nM; at Histone deacetylase 1 [3], 200 nM; with HMEC it was above 40000 nM.
In turn, `Nc1nc(NCc2ccc(C(=O)Nc3ccccc3N)cc2)nc(NC2CCCC2)n1` had an EC50 in assay [1] of 800 nM. Also, the result in assay [4], in [5], in [7] and in assay [10] was inactive. Also, the result (in assay [6]; at Histone deacetylase 1 [8]; in [11]) was Active. Further, the inhibition in vivo at 40 mg/kg/day in the assay on HCT-116 [12] is 50%. Moreover, the IC50 amounted to 700 nM in the assay with HCT-116 [2], 200 nM on Histone deacetylase 1 [3] and 11000 nM in the assay with HMEC.
For the compound `CCCCn1cnc2c(NCc3ccc(C(=O)Nc4ccccc4N)cc3)nc(N)nc21`, the half-maximal inhibitory concentration (IC50) is 2000 nM in the assay on HCT-116 [2] and 300 nM at Histone deacetylase 1 [3].
Taken in the same sequence, the figures for `Nc1ccccc1NC(=O)c1ccc(CNc2cccc(F)n2)cc1` were 1000 nM and 100 nM.
Take `Cc1cc(C)nc(NCc2ccc(C(=O)Nc3ccccc3N)cc2)n1`: the figures for the IC50 with HCT-116 [2] and at Histone deacetylase 1 [3] were 1000 nM and 300 nM, respectively.
On to `CCCCn1cnc2c(NCc3ccc(C(=O)Nc4ccccc4N)cc3)nc(Cl)nc21`, for which the results for the IC50 in the assay on HCT-116 [2] and on Histone deacetylase 1 [3] were 100 nM and 50 nM, respectively.
Turning to `COc1ccc(-c2cc(Cl)nc(NCc3ccc(C(=O)Nc4ccccc4N)cc3)n2)cc1OC`, the results for the IC50 in the assay with HCT-116 [2] and on Histone deacetylase 1 [3] were 400 nM and 100 nM, respectively.
For `COc1cc(OC)nc(NCc2ccc(C(=O)Nc3ccccc3N)cc2)n1`, the half-maximal inhibitory concentration (IC50) with HCT-116 [2] amounted to 600 nM; on Histone deacetylase 1 [3], 100 nM.
In assay [1], `Nc1nc(NCc2ccc(C(=O)Nc3ccccc3N)cc2)nc(N2CCc3ccccc32)n1` returned a concentration for a half-maximal effect (EC50) of 1000 nM. For the same compound, the concentration for half-maximal inhibition (IC50) with HCT-116 [2] amounted to 800 nM; on Histone deacetylase 1 [3] it was 100 nM; in the assay on HMEC it was 10000 nM.
Take `Nc1nc(NCc2ccc(C(=O)Nc3ccccc3N)cc2)nc(NC2Cc3ccccc3C2)n1`: in assay [1], the half-maximal effective concentration (EC50) stood at 1000 nM. In addition, the result in assay [4], in assay [5], in [7] and in [10] was inactive. Moreover, the outcome (in assay [6]; at Histone deacetylase 1 [8]; in [11]) was Active. Moreover, the half-inhibitory concentration (IC50) in the assay on HCT-116 [2] amounted to 600 nM; on Histone deacetylase 1 [3] it was 200 nM; with HMEC, 8000 nM.
On to `Nc1ccccc1NC(=O)c1ccc(CSc2ccccn2)cc1`, for which the IC50 with HCT-116 [2] came out at 1000 nM; on Histone deacetylase 1 [3] it was 300 nM.
In assay [1], `Nc1nc(NCCc2ccccc2)nc(NCc2ccc(C(=O)Nc3ccccc3N)cc2)n1` returned an EC50 of 1000 nM. In addition, the half-maximal inhibitory concentration (IC50) was 300 nM in the assay on HCT-116 [2], 100 nM at Histone deacetylase 1 [3] and 21000 nM in the assay with HMEC.
With `COc1ccc(NCc2ccc(C(=O)Nc3ccccc3N)cc2)cn1`, the 50% inhibitory concentration (IC50) came to 700 nM with HCT-116 [2] and 100 nM on Histone deacetylase 1 [3].
